Test results from US10798941B2, “Microbiocidal oxadiazole derivatives” (SYNGENTA PARTICIPATIONS AG, priority 2016, dated 2020).

What was measured:
[1] = test system: Puccinia recondita f. Sp. Tritici; assay: Puccinia recondita f. sp. tritici / wheat / leaf disc preventative (brown rust); assay type: in vivo; details: foliar, 168 h, 200 ppm in the applied formulation, wheat leaf segments cv. Kanzler, preventative, inoculated 1 day after application, assessed 7 to 9 days after application, vs untreated, read-out: disease control
In short: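 Preventative leaf-segment test: spray application of diluted formulated compound on wheat cv. Kanzler, spore inoculation after 1 day. Percent control relative to untreated segments rated 7 to 9 days post-application, with incubation at 19° C, 75% relative humidity, 12 h photoperiod.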

[2] = test system: Puccinia recondita f. Sp. Tritici; assay: Puccinia recondita f. sp. tritici / wheat / leaf disc curative (brown rust); assay type: in vivo; details: foliar, 144 h, 200 ppm in the applied formulation, wheat leaf segments cv. Kanzler, applied 1 day after inoculation, assessed 6 to 8 days after application, vs untreated, read-out: disease control
In short: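 Segments of wheat (cultivar Kanzler) sit on agar and are spore-inoculated first; after one day in darkness at 19° C and 75% RH the diluted formulated compound is sprayed on. A 12 h photoperiod follows at the same temperature and humidity before disease is scored against untreated controls.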

Phakopsora pachyrhizi = Phakopsora pachyrhizi / soybean / leaf disc preventative (Asian soybean rust); assay type: in vivo; details: foliar, 288 h, 200 ppm in the applied formulation, soybean leaf disks, inoculated one day after application, assessed 12 to 14 days after application, vs untreated, read-out: disease control
In short: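 Read-out is percent disease control relative to untreated check discs, assessed once untreated discs show adequate disease, 12 to 14 days after application. Compounds, tested at 200 ppm in the applied formulation, are sprayed onto soybean leaf discs one day before inoculation with a spore suspension.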

[3] = test system: Glomerella Lagenarium (Colletotrichum Lagenarium); assay: Glomerella lagenarium (Colletotrichum lagenarium) liquid culture / cucumber / preventative (anthracnose); assay type: cell-based; details: Colletotrichum orbiculare; 20 ppm in the applied formulation; liquid culture in PDB, 24° C., inhibition of growth measured photometrically 3 to 4 days after application, vs untreated; read-out: disease control
In short: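 Conidia from cryogenic storage were mixed into potato dextrose broth. This was added to compound diluted from DMSO into 0.025% Tween20, tested at 20 ppm. Plates were incubated in the dark at 24 °C and 96% relative humidity, and growth was read photometrically after 2–7 days as % activity versus untreated check.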

Structure (SMILES)	melting point [°C]	pest or weed control at 200 ppm [1] [%]	pest or weed control at 200 ppm [2] [%]	pest or weed control at 200 ppm (Phakopsora pachyrhizi) [%]	inhibition of growth at 20 ppm [3] [%]
O=C(Nc1ccncc1)c1cn(Cc2ccc(-c3noc(C(F)(F)F)n3)cc2)nn1 [Compound 1.283, N-(4-pyridyl)-1-[[4-[5-(trifluoromethyl)-1,2,4-oxadiazol-3-yl]phenyl]methyl]triazole-4-carboxamide]	204 to 206	≥ 80	≥ 80	≥ 80	≥ 80
COC(=O)c1cn(Cc2ccc(-c3noc(C(F)(F)F)n3)cc2)nn1 [Compound 1.270, methyl 1-[[4-[5-(trifluoromethyl)-1,2,4-oxadiazol-3-yl]phenyl]methyl]triazole-4-carboxylate]	154 to 156	≥ 80	≥ 80	≥ 80	≥ 80
FC(F)(F)c1nc(-c2ccc(Cn3cncn3)c(Cl)c2)no1 [Compound 1.99, 3-[3-chloro-4-(1,2,4-triazol-1-ylmethyl)phenyl]-5-(trifluoromethyl)-1,2,4-oxadiazole]	63 to 71	≥ 80	≥ 80	≥ 80	≥ 80
FC(F)(F)c1nc(-c2ccc(Cn3nc4ccccc4n3)cc2)no1 [Compound 1.34, 3-[4-(benzotriazol-2-ylmethyl)phenyl]-5-(trifluoromethyl)-1,2,4-oxadiazole]	112.4 to 116.6	≥ 80	≥ 80	≥ 80	≥ 80
CS(=O)(=O)N1CCN(Cc2ccc(-c3noc(C(F)(F)F)n3)cc2)CC1 [Compound 1.305, 3-[4-[(4-methylsulfonyl-piperazin-1-yl)methyl]phenyl]-5-(trifluoromethyl)-1,2,4-oxadiazole]	111.1 to 114.9	≥ 80	≥ 80	≥ 80	≥ 80
CN(C)C(=O)c1cn(Cc2ccc(-c3noc(C(F)(F)F)n3)cc2)nn1 [Compound 1.280, N,N-dimethyl-1-[[4-[5-(trifluoromethyl)-1,2,4-oxadiazol-3-yl]phenyl]methyl]triazole-4-carboxamide]	168 to 170	≥ 80	≥ 80	≥ 80	≥ 80

The next lines start with results.

melting point [°C]	Structure (SMILES)	pest or weed control at 200 ppm [1] [%]	pest or weed control at 200 ppm [2] [%]	pest or weed control at 200 ppm (Phakopsora pachyrhizi) [%]	inhibition of growth at 20 ppm [3] [%]
142.3 to 143.2	FC(F)(F)c1nc(-c2ccc(Cn3nnc4ccccc43)cc2)no1 [Compound 1.35, 3-[4-(benzotriazol-1-ylmethyl)phenyl]-5-(trifluoromethyl)-1,2,4-oxadiazole]	≥ 80	≥ 80	≥ 80	≥ 80
198 to 200	CONC(=O)c1cn(Cc2ccc(-c3noc(C(F)(F)F)n3)cc2)nn1 [Compound 1.277, N-methoxy-1-[[4-[5-(trifluoromethyl)-1,2,4-oxadiazol-3-yl]phenyl]methyl]triazole-4-carboxamide]	≥ 80	≥ 80	≥ 80	≥ 80
193 to 195	CCNC(=O)c1cn(Cc2ccc(-c3noc(C(F)(F)F)n3)cc2)nn1 [Compound 1.274, N-ethyl-1-[[4-(5-(trifluoromethyl)-1,2,4-oxadiazol-3-yl]phenyl]methyl]triazole-4-carboxamide]	≥ 80	≥ 80	≥ 80	≥ 80
103 to 107	COC(=O)c1cnnn1Cc1ccc(-c2noc(C(F)(F)F)n2)cc1 [Compound 1.279, methyl 3-[[4-[5-(trifluoromethyl)-1,2,4-oxadiazol-3-yl]phenyl]methyl]triazole-4-carboxylate]	≥ 80	≥ 80	≥ 80	≥ 80
